Experimental data as given in article PMC11791976, “CDC20‐Mediated Selective Autophagy Degradation of PBRM1 Affects Immunotherapy for Renal Cell Carcinoma” (Advanced Science, 2024).
Where a SMILES comes first, the peptide text is derived from it. The star is where a group is joined. Cbz = O=C(OCc1ccccc1)*

Tested on: PBRM1
Assay: Immunoblot of PBRM1 / CDC20 protein level in cells treated with tool compounds
Assay type: cell-based
Conditions: for CDC20 protein level / PBRM1 protein level: cell cycle block, 24 h, Figure S1J,K
Experimental: Figure 3 Autophagy selectively degrades PBRM1 via the autophagic receptor p62 in a CDC20‐dependent manner. A) IB analysis of WCL lysates derived from WT or CDC20 knockdown 786‐O and 769‐P cells treated with NH4Cl (20 mM, 24 h) before harvesting. B) IB analysis of WCL lysates derived from 786‐O and 769‐P cells treated with NH4Cl (20 mM) for indicated hours. C) IB analysis of WCL lysates derived from 786‐O and 769‐P cells treated with chloroquine (CQ, 50 µM) for indicated hours. D) IB analysis of WCL lysates derived from 786‐O and 769‐P cells treated with glucose starvation (G.S.) for indicated hours. E) IB analysis of WCL lysates derived from 786‐O and 769‐P cells treated with serum starvation (S.S.) for indicated hours. F) IB analysis of WCL lysates derived from wild‐type (WT) or ATG5 knockdown 786‐O and 769‐P cells treated with serum starvation (S.S.) for indicated hours before harvesting. G) IB analysis of WCL and anti‐HA immunoprecipitates derived from 293T cells transfected with HA‐p62 and V5‐PBRM1. H) IB analysis of WCL and anti‐Flag immunoprecipitates derived from 293T cells transfected with Flag‐p62 and V5‐PBRM1. I) IB analysis of WCL lysates derived from shScr or p62 knockdown 786‐O and 769‐P cells using shRNA. J) IB analysis of WCL lysates derived from NC or p62 knockdown 786‐O cells using siRNA. NC, negative control. K,L) Immunoblotting analysis (K) and quantification (L) of cell lysates of WT and p62 knockdown 786‐O cells treated with cycloheximide (CHX, 20 µg ml^−1) at indicated time points. M) IB analysis of WCL and GST‐pull‐down products derived from 293T cells transfected with GST‐p62 and V5‐PBRM1. 24 h post transfection, cells were treated with serum starvation (S.S.) for 24 h before harvesting the cells. N) IB analysis of WCL and GST‐pull‐down products derived from 293T cells transfected with GST‐p62, HA‐CDC20 and V5‐PBRM1. O) IB analysis of WCL and GST‐pull‐down products derived from WT and CDC20 knockdown 293T cells transfected with GST‐p62 and V5‐PBRM1. P) Schematic representation of truncated constructs of p62 for mapping the interaction domain with PBRM1. Q) IB analysis of WCL and GST‐pull‐down products derived from 293T cells transfected with V5‐PBRM1 and indicated constructs of GST‐p62 plasmids. R) Schematic representation of truncated constructs of p62 for mapping the interaction domain with PBRM1. S) IB analysis of WCL and GST‐pull‐down products derived from 293T cells transfected with V5‐PBRM1 and indicated constructs of GST‐p62 plasmids.
Cells were washed 3 times with ice‐cold phosphate‐buffered saline (PBS). The appropriate RIPA or IP buffer was added, which was mixed with protease and phosphatase inhibitors in advance. After centrifugation, the cell lysate supernatant was collected and checked using the BCA qualification system. The appropriate protein‐loading buffer was added to the protein lysates and denatured in a boiling water bath for 5 min. Each sample contained 30 µg protein, which was loaded onto 8% or 10% SDS‐PAGE gels and transferred to a polyvinylidene fluoride (PVDF) membrane. Then, the PVDF membranes were […] in fresh milk for 1 h at room temperature. Primary antibodies of the targets were added to the PVDF membranes and incubated overnight at 4 °C. The cells were rinsed 3 times with TBST buffer, followed by incubation with peroxidase‐conjugated antibodies at room temperature for 1 h. After washing, the PVDF membranes were analyzed and visualized using an ECL system (Bio‐Rad, Hercules, CA, USA).
Supplementary Figure 1. PBRM1 fluctuates during cell cycle progression. (A) IB analysis of WCL and anti-HA immunoprecipitates derived from 293T cells transfected with HA-CDC20 and Flag-PBRM1. (B) Schematic representation of truncated constructs of CDC20 for mapping the interaction domain with PBRM1. (C) IB analysis of WCL and GST-pull-down products derived from 293T cells transfected with Flag-PBRM1 and indicated constructs of GST-CDC20. Vec, vector. […]

[1] = 786-O and 769-P cells, NH4Cl 20 mM, chloroquine 50 µM, indicated hours

| Compound | CDC20 protein level (786-O and 769-P cells) | PBRM1 protein level (786-O and 769-P cells) | protein level of PBRM1 [1] | protein level of PBRM1 (renca and 786-O cells, MG132 10 μM 12 hours, Figure S5O) |
| --- | --- | --- | --- | --- |
| CC(=O)O[C@H]1C(=O)[C@@]2(C)[C@H]([C@H](OC(=O)c3ccccc3)[C@]3(O)C[C@H](OC(=O)[C@H](O)[C@@H](NC(=O)c4ccccc4)c4ccccc4)C(C)=C1C3(C)C)[C@]1(OC(C)=O)CO[C@@H]1C[C@@H]2O [taxol, paclitaxel] | decreased | upregulated |  |  |
| CCN(CC)CCCC(C)Nc1ccnc2cc(Cl)ccc12 (stereo not shown) [chloroquine] |  |  | upregulated |  |
| CC(C)C[C@@H](C=O)NC(=O)[C@H](CC(C)C)NC(=O)[C@H](CC(C)C)NC(=O)OCc1ccccc1 [MG132] (Cbz-Leu-Leu-Leu-aldehyde) |  |  |  | enhance the protein level of PBRM1 |
| Cl.N [NH4Cl, ammonium chloride] |  |  | increased |  |
| COC(=O)Nc1nc2ccc(C(=O)c3cccs3)cc2[nH]1 [nocodazole] | decreased | upregulated |  |  |
